In ChEMBL document CHEMBL1153015, “A new type of five-membered heterocyclic inhibitors of basic metallocarboxypeptidases” (Eur J Med Chem, 2009):

Assays:
Carboxypeptidase B [1] = target: T1, Carboxypeptidase B (Helicoverpa zea, UniProt Q3T905); test: Inhibition of corn earworm recombinant carboxypeptidase B expressed in Pichia pastoris system
T1 sequence (Q3T905 whole entry): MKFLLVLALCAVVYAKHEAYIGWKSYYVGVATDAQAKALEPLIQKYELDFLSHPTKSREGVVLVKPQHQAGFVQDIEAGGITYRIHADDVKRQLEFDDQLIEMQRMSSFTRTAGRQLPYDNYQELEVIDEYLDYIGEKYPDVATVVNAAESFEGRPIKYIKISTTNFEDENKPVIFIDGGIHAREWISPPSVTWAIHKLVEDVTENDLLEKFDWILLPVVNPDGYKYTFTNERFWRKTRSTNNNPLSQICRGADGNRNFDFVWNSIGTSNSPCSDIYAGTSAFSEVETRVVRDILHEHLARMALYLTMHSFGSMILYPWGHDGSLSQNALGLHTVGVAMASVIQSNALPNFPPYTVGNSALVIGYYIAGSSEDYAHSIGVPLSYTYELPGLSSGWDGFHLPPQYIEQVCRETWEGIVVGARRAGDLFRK

Carboxypeptidase A1 = target: T2, Carboxypeptidase A1 (Bos taurus, UniProt P00730); test: Inhibition of bovine carboxypeptidase A1
T2 sequence (P00730 whole entry): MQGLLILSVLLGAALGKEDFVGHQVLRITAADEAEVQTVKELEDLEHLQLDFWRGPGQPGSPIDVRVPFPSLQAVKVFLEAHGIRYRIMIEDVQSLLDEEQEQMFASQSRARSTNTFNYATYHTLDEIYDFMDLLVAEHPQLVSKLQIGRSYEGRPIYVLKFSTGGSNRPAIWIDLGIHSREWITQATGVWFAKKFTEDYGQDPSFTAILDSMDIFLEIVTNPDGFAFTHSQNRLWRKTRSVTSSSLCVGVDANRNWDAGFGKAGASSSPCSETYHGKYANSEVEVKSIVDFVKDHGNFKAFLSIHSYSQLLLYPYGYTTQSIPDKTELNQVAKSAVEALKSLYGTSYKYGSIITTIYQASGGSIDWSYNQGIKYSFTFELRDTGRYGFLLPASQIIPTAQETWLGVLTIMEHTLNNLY

Carboxypeptidase B [2] = target: T3, Carboxypeptidase B (Homo sapiens, UniProt P15086); test: Inhibition of human recombinant carboxypeptidase B expressed in Pichia pastoris system
T3 sequence (P15086 whole entry): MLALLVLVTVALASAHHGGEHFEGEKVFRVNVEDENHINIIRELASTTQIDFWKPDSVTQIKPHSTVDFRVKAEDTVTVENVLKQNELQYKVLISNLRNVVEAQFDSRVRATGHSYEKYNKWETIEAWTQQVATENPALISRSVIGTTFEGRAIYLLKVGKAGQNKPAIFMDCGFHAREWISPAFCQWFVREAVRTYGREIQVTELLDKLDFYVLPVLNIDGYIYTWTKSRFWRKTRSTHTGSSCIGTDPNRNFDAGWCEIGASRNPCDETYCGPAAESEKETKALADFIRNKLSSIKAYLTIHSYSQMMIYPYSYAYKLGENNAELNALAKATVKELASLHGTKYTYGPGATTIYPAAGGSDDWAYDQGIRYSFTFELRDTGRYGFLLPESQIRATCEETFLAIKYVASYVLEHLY

[3] = Selectivity ratio, Ki for bovine carboxypeptidase A1 to Ki for human recombinant carboxypeptidase B

Structure (SMILES)	Ki (Carboxypeptidase B [1]; read-out: Ki) [µM]	Ki (Carboxypeptidase A1) [µM]	Ki (Carboxypeptidase B [2]) [µM]	Ratio Ki [3]	Ki (Carboxypeptidase B [1])
O=C(CSc1nnc(-c2ccccc2O)o1)c1ccc(Cl)cc1	1	2.1	7.5	20	–
O=C(O)c1ccccc1C(=O)N1CCC(C(=O)c2ccccc2)CC1	19.6	320	20.7	–	–
COc1ccccc1-c1nnc(SCC(=O)OC(C)C)n1Cc1ccccc1	36.1	160	7.4	–	–
COc1ccccc1Cn1c(SCC(=O)N2CCC(C)CC2)nnc1-c1ccncc1	30.2	381	20.8	–	–
Cc1ccc(S(=O)(=O)N2CCN(C(=O)CNCc3ccncc3)CC2)cc1	18	250	364	–	–
Cc1ccccc1CCNS(=O)(=O)c1ccc(-n2cnnn2)c(C)c1	38	138	25.9	–	–
O=C(O)c1cccc(-n2nnnc2SCC(=O)c2ccccc2F)c1	53.8	550	33.6	–	–
O=C(O)CC(Cc1ccccc1)C(=O)O (racemic)	11.9	0.5	10	–	–
O=C(C1CC1)N(Cc1ccccc1)c1nc(-c2ccccc2)cs1	1.2	800	4.5	160	–
COc1cccc(CSc2nnc(Cc3csc(Nc4cccc(Cl)c4)n3)o2)c1	3.6	22.5	1.2	–	–
CCCN(C(=O)Cc1ccccc1OC)c1nnc(-c2ccc(OC)cc2)s1	19.7	128	25.1	–	–
Cc1cccc(CCc2nnc(SCC(=O)O)n2Cc2ccccc2)c1	57	217	196	–	–
O=C(CSc1nnc(-c2ccc(O)cc2)n1Cc1ccco1)c1cccs1	–	74.5	9.1	–	Not Active
O=S(=O)(NCc1cccs1)c1ccc(-c2nnc(SCc3ccccc3Cl)o2)cc1	1.4	67.3	40	–	–
Cc1cc(S(=O)(=O)N(Cc2ccco2)Cc2ccccc2Cl)ccc1-n1cnnn1	12.6	159	16.6	–	–
O=S(=O)(NCc1ccccc1)c1ccc(S(=O)(=O)N(Cc2cccs2)CC2CCCO2)cc1 (configuration not stated)	–	19.4	23	–	Not Active
Cc1ccccc1-c1nnc(SCC(=O)c2ccccc2F)o1	40	39.3	14.7	–	–
COC(=O)CSc1nnc(-c2ccccc2O)n1Cc1ccccc1	41.6	159	4.9	30	–
O=C(CSc1nnc(-c2ccccc2F)o1)OCc1ccccc1	33.4	32	67.2	–	–
COc1cccc(CN(Cc2cccnc2)S(=O)(=O)c2ccc(-n3cnnn3)c(C)c2)c1	28.4	148	23.9	–	–
Cc1ccc(C(=O)CSc2nnc(COc3ccc(Cl)cc3)o2)cc1	12	36.7	11.7	–	–
CCOC(=O)C(Sc1nnc(COc2ccc(CC)cc2)n1CC)C(C)C (configuration not stated)	11.9	22	10.8	–	–
N=C(N)NCCSC(CC(=O)O)C(=O)O (racemic)	–	–	1.1	–	–
COc1ccc(C(=O)Cn2nnc(-c3ccccc3NC(=O)C3CC3)n2)cc1	31	41.3	292	–	–
NC(=O)CSc1nnc(-c2cccs2)n1Cc1ccccc1	27.2	155	11.6	–	–
O=C(CSc1nnc(-c2ccco2)n1Cc1ccccc1)c1ccc(F)cc1	–	236	74.5	–	Not Active
Cc1ccc(C)c2c1[nH]c1nc(SCC(=O)c3ccc(F)cc3)nnc12	9	86.3	15	–	–
